Earlier results, collected in publication PMC12287436 (Scientific Reports, 2025).
Where a name gives a salt, the structure may show the parent alone.

Conditions: rabbits; 2% instillation dose

Retinal concentration: 2.8 µM
Compound: CCN[C@H]1C[C@H](C)S(=O)(=O)c2sc(S(N)(=O)=O)cc21 [dorzolamide hydrochloride]
